Laboratory results from US5039805A, “Novel benzoic and phenylacetic acid derivatives” (Hoffmann-La Roche Inc., priority 1988, dated 1991).
Where a SMILES comes first, the peptide text is derived from it. [ ]: non-standard residue; d: D form. The star is where a group is joined. 3Abz = Nc1cccc(C(=O)O)c1; Boc = CC(C)(C)OC(=O)*

Tested on: not listed separately
Assay: LD50 in the mouse (acute toxicity)
Details: in vivo, ip, intraperitoneally
Description: The compounds of formula I are non-toxic. Thus, the product of Example 10 has a LD50 of more than 1000 mg/kg intraperitoneally and more than 2000 mg/kg perorally in the mouse.

| SMILES | LD50 [mg/kg] |
| --- | --- |
| N=C(N)NCCCCCC(=O)Nc1cccc(C(=O)NCCC(=O)O)c1 [Example 10, N-[m-(6-guanidinohexanamido)benzoyl]-β-alanine] | > 1000 |

Same assay, conditions: in vivo, po, perorally

| SMILES | LD50 [mg/kg] |
| --- | --- |
| N=C(N)NCCCCCC(=O)Nc1cccc(C(=O)NCCC(=O)O)c1 [Example 10, N-[m-(6-guanidinohexanamido)benzoyl]-β-alanine] | > 2000 |

Molecular target: T1, fibrinogen receptor, glycoprotein IIb/IIIa (Homo sapiens, UniProt P05106+P08514)
T1 construct: obtained from Triton X-100 extracts of human blood platelets; from tissue
T1 sequence (P08514 32-887 limits assumed): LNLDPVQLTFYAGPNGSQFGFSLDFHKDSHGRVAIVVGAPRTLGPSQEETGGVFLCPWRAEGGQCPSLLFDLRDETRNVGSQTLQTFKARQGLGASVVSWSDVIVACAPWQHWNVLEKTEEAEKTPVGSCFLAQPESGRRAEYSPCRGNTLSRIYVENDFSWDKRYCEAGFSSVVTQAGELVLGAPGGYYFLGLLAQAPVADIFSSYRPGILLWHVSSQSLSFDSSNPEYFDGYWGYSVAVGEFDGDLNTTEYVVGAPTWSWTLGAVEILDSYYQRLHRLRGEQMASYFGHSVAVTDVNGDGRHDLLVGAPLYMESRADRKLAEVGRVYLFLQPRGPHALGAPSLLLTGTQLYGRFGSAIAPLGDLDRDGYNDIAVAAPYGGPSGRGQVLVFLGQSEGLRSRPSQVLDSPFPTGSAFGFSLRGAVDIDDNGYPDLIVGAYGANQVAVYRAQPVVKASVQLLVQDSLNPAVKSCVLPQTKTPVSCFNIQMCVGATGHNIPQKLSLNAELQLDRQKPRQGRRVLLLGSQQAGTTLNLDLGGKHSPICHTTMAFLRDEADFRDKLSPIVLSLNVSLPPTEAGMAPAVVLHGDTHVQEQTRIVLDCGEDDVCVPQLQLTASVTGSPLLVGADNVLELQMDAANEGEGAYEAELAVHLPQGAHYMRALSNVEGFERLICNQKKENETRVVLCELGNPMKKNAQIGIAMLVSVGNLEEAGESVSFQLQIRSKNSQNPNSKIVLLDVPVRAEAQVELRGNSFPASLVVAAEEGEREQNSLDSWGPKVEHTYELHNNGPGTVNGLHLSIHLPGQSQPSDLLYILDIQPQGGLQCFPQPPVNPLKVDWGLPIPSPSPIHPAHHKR
T1 sequence (P08514 891-1039 limits assumed): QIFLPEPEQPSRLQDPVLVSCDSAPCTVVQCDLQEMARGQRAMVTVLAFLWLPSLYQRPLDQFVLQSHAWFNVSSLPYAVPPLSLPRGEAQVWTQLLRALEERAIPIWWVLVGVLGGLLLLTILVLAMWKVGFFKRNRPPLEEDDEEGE
T1 sequence (P05106 27-788): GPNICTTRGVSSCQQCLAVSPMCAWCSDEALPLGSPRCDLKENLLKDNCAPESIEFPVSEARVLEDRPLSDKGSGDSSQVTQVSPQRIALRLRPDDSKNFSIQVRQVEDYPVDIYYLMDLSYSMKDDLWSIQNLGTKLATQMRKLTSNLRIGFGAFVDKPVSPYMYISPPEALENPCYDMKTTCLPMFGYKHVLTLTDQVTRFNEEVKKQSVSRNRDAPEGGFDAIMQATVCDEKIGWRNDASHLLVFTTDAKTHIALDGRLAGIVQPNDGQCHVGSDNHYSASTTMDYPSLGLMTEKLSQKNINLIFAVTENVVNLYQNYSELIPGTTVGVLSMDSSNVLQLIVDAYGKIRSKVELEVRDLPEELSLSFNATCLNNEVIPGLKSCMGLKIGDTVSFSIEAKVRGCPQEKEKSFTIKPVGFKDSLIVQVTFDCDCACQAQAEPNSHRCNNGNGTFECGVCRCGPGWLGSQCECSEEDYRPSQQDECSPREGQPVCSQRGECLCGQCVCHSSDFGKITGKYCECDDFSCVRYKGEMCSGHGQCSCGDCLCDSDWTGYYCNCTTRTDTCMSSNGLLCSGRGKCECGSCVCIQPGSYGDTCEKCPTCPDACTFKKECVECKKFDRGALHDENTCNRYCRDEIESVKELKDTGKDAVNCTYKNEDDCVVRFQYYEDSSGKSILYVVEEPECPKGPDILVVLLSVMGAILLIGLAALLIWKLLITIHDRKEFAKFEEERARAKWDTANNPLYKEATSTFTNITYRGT
Assay: inhibition of the binding of fibrinogen to the immobilized fibrinogen receptor (ELISA)
Details: fibrinogen binding to immobilized glycoprotein IIb/IIIa from human blood platelets, read-out: IC50 (inhibition of the binding of fibrinogen to the immobilized receptor by 50%)
Description: The glycoprotein IIb/IIIa is obtained from Triton X-100 extracts of human blood platelets and is purified by lectin affinity chromatography (Analytical Biochemistry 151, 1985, 169-177) and chromatography on an Arg-Gly-Asp-Ser affinity column (Science 231, 1986, 1559-62). The thus-obtained receptor protein is bonded to microtitre plates. The specific binding of fibrinogen to the immobilized receptor is determined with the aid of an ELISA system ("enzyme-linked immunosorbent assay"). The IC50 values hereinafter correspond to that concentration of the test substance which is required to inhibit the binding of fibrinogen to the immobilized receptor by 50%: […]

| IC50 [nM] | SMILES |
| --- | --- |
| 150 | NCCCCC(=O)Nc1ccc(OCc2ccccc2)c(C(=O)NCCC(=O)O)c1 [Example 46, N-[5-(5-aminovaleramido)-2-(benzyloxy)benzoyl]-β-alanine] |
| 180 | N=C(N)NCCCCC(=O)Nc1ccc(OCc2ccccc2)c(C(=O)NCCC(=O)O)c1 [Example 47, N-[2-(benzyloxy)-5-(5-guanidinovaleramido)benzoyl]-β-alanine] |
| 17 | N=C(N)c1ccc(C(=O)Nc2ccc(C(=O)NCCC(=O)O)cc2)cc1 [Example 51, N-[p-(p-amidinobenzamido)benzoyl]-β-alanine] |
| 140 | N=C(N)c1ccc(CC(=O)Nc2cccc(C(=O)NCCC(=O)O)c2)cc1 [Example 52, N-[m-[2-(p-amidinophenyl)acetamido]benzoyl]-β-alanine] |
| 70 | O=C(O)CCNC(=O)c1cccc(NC(=O)CCC2CCNCC2)c1 [Example 53, N-[m-[3-(4-piperidinyl)propionamido]benzoyl]-β-alanine] |
| 10 | N=C(N)c1ccc(C(=O)Nc2ccc(OCc3ccccc3)c(C(=O)NCCC(=O)O)c2)cc1 [Example 54, N-[5-(p-amidinobenzamido)-2-(benzyloxy)benzoyl]-β-alanine] |
| 25 | N=C(N)c1ccc(C(=O)Nc2cc(C(=O)NCCC(=O)O)ccc2OCc2ccccc2)cc1 [Example 55, N-[3-(p-amidinobenzamido)-4-(benzyloxy)benzoyl]-β-alanine] |
| 5 | N=C(N)c1ccc(C(=O)Nc2cc(C(=O)NCCC(=O)O)ccc2O)cc1 [Example 56, N-[3-(p-amidinobenzamido)-4-hydroxybenzoyl]-β-alanine] |
| 50 | COC(=O)[C@H](CC(=O)O)NC(=O)c1cccc(NC(=O)c2ccc(C(=N)N)cc2)c1 [Example 60, (S)-3-[m-(p-amidinobenzamido)benzamido]-3-(methoxycarbonyl)propionic acid] |
| 220 | N=C(N)N1CCC(C(=O)Nc2cccc(C(=O)N[C@@H](CC(=O)O)C(=O)N[C@@H](Cc3ccccc3)C(=O)O)c2)CC1 [Example 64, N-[N-[m-(1-amidino-4-piperidinecarboxamido)benzoyl]-L-α-aspartyl]-3-phenyl-L-alanine] |
| 84 | N=C(N)c1ccc(CC(=O)Nc2cccc(C(=O)N[C@@H](CC(=O)O)C(=O)N[C@@H](Cc3ccccc3)C(=O)O)c2)cc1 [Example 65, N-[N-[m-[2-(p-amidinophenyl)acetamido]benzoyl]-L-α-aspartyl]-3-phenyl-L-alanine] |

Continued, compound first:

| SMILES | IC50 [nM] |
| --- | --- |
| NCCCCC(=O)Nc1cccc(C(=O)NC(CC(=O)O)c2ccc3c(c2)CCC3)c1 (racemic) [Example 41, DL-N-[m-(5-aminovaleramido)benzoyl]-3-(5-indanyl)-β-alanine] | 280 |
| NCCCCCC(=O)Nc1cccc(C(=O)NCCC(=O)O)c1 [Example 5, N-[m-(6-aminohexanamido)benzoyl]-β-alanine] | 270 |
| NCc1ccc(C(=O)Nc2cccc(C(=O)NCCC(=O)O)c2)cc1 [Example 8, N-[m-(α-amino-p-toluamido)benzoyl]-β-alanine] | 160 |
| NCCCCC(=O)Nc1cccc(C(=O)NCCC(=O)O)c1 [Example 9, N-[m-(5-aminovaleramido)benzoyl]-β-alanine] | 240 |
| N=C(N)NCCCCCC(=O)Nc1cccc(C(=O)NCCC(=O)O)c1 [Example 10, N-[m-(6-guanidinohexanamido)benzoyl]-β-alanine] | 260 |
| N=C(N)NCc1ccc(C(=O)Nc2cccc(C(=O)NCCC(=O)O)c2)cc1 [Example 13, N-[m-(α-guanidino-p-toluamido)benzoyl]-β-alanine] | 220 |
| CC(C)[C@H](NC(=O)[C@H](CC(=O)O)NC(=O)c1cccc(NC(=O)[C@@H](N)CCCNC(=N)N)c1)C(=O)O [Example 14, N-[N-[m-(L-arginylamino)benzoyl]-L-α-aspartyl]-L-valine] (H-R[3Abz]DV-OH) | 300 |
| CC(C)[C@H](NC(=O)[C@H](CC(=O)O)NC(=O)c1cccc(NC(=O)[C@H](CCCN=C(N)N)NC(=O)OC(C)(C)C)c1)C(=O)O [Example 15, [m-(Boc-Arg-NH)benzoyl]-Asp-Val] (Boc-R[3Abz]DV-OH) | 80 |
| NCCCCCC(=O)Nc1ccc(Cl)c(C(=O)NCCC(=O)O)c1 [Example 17, N-[5-(6-aminohexanamido)-2-chlorobenzoyl]-β-alanine] | 380 |
| NCCCCCCC(=O)Nc1cccc(C(=O)NCCC(=O)O)c1 [Example 21, N-[m-(7-aminoheptanamido)benzoyl]-β-alanine] | 460 |
| N=C(N)NCCCCC(=O)Nc1cccc(C(=O)NCCC(=O)O)c1 [Example 22, N-[m-(5-guanidinovaleramido)benzoyl]-β-alanine] | 250 |
| N=C(N)NCCCC(=O)Nc1cccc(C(=O)NCCC(=O)O)c1 [Example 24, N-[m-(4-guanidinobutyramido)benzoyl]-β-alanine] | 380 |
| CC(C)(C)OC(=O)N[C@@H](CCCN)C(=O)Nc1cccc(C(=O)NCCC(=O)O)c1 [Example 28, N-[m-[[(S)-N2-(t-butoxycarbonyl)-L-ornithyl]amino]benzoyl]-β-alanine] | 140 |
| NCc1ccc(CC(=O)Nc2cccc(C(=O)NCCC(=O)O)c2)cc1 [Example 32, N-[m-[2-(α-amino-p-tolyl)acetamido]benzoyl]-β-alanine] | 120 |
| N=C(N)c1ccc(C(=O)Nc2cccc(C(=O)N[C@@H](CC(=O)O)C(=O)N[C@@H](Cc3cccc4ccccc34)C(=O)O)c2)cc1 [Example 34, N-[N-[m-(p-amidinobenzamido)benzoyl]-L-α-aspartyl]-3-(1-naphthyl)-L-alanine] | 46 |
| N=C(N)c1ccc(C(=O)Nc2cccc(C(=O)NCCC(=O)O)c2)cc1 [Example 35, N-[m-(p-amidinobenzamido)-benzoyl]-β-alanine] | 0.1 |
| N=C(N)NCC(=O)Nc1cccc(C(=O)NCCC(=O)O)c1 [Example 36, N-[m-[(N-amidinoglycyl)amino]benzoyl]-β-alanine] | 270 |
